From patent US20200299328A1, “POLYPEPTIDE WITH FUNCTION OF INHIBITING ABETA 42 PROTEIN AGGREGATION AND USE THEREOF, AND GENE ENCODING THE POLYPEPTIDE” (SOUTH CHINA UNIVERSITY OF TECHNOLOGY, priority 2018, published 2020)

Test system: Aβ42 protein aggregation in HEK-293-Aβ42-mCherry cells
Assay: Activity experiment of inhibiting Aβ42 protein aggregation in vitro (IncuCyte Zoom live cell imaging, tetracycline induction)
Type: cell-based
Conditions: compared with model group, 72 hours after tetracycline, p<0.01 (FIG. 5)
Excerpt: In the specific embodiments, in an application process of the polypeptide with the function of inhibiting Aβ42 protein aggregation according to the present invention, a mechanism of inhibiting AD senile plaque by the polypeptide is first researched through a visual in-vitro cell model test. Specifically, an amino acid sequence of a core component of senile plaque—an Aβ42 protein (the 22nd amino acid in a sequence of 42 amino acids—glutamic acid is mutated into glycine) is stably transferred into HEK-293 cells, so that it is stably expressed in the HEK-293 cells to form a cell model of abnormal Aβ protein aggregation, and then tetracycline is added to induce the Aβ protein to form a red fluorescent protein and emit red fluorescent light for positioning and quantifying the expression of the Aβ42 protein; and then, the polypeptide with the function of inhibiting Aβ42 protein aggregation according to the present invention is added, and a HEK293 cell model transfected with an Aβ42-red fluorescent labeling gene is used for evaluation, thus proving that the polypeptide has a remarkable activity of inhibiting Aβ42 protein aggregation. […]

Pro-Pro-Lys-Asn-Trp (PPLAT) [PW-5]
Aβ42 protein aggregation rate (PW-5 high-dose group 0.5 mM, effect more significant than low-dose group): significantly reduced
Aβ42 protein aggregation rate (PW-5 low-dose group 0.05 mM): significantly reduced
